Read-outs that look alike come from different tables or passages of the source.
What was measured:
acetic acid "writhing" = experiment: Acetic acid "writhing test" on mice (analgesic effect; method of Newbould); assay type: in vivo; conditions: Mus musculus, po
Description: 2. Acetic acid "writhing test" on mice (analgesic effect) Method: Newbould, Brit. […] In the period between the 5th and 10th minutes following the administration of acetic acid the number of the characteristic "writhing" responses is counted for each animal and the "total writhing number" (within 5 minutes) is expressed as the percentage of the value obtained for the control animals. The mice are treated with the test compound and the carrier, respectively, orally 1 hour before the administration of acetic acid. 12 animals are used per dose.

[1] = Toxicity (LD50) and therapeutical index, Table II; conditions: mouse, in vivo
[2] = test system: experimental coronaria insufficiency induced with vasopressin; experiment: Antianginal effect (vasopressin-induced experimental coronaria insufficiency, ECG wave T; method of Nieschulz et al.); assay type: in vivo; conditions: male rats, 2 minutes prior to vasopressin; for ED50: Rattus norvegicus, iv.
Description: Method: the test was carried out on rats by using the method of Nieschulz, E., Popendiker, K. and Hoffmann, I. (Arzneimittel Forschung, 5, 680 /1955/).
Male rats of 180-220 g body weight were narcotized with chloralese-urethane(70-700 mg/kg ip.). The ECG was registered with needle electrodes in standard II leading. The experimental coronaria insufficiency was induced with […].). The height of wave T in ECG was measured before and after the administration of vasopressin in both the control and treated groups. Test compounds were administered intravenously 2 minutes prior to the treatment with vasopressin.

[3] = white mice, orally 1 hour before acetic acid, writhing counted 5th to 10th minutes, 12 animals per dose, read-out: ID50 (the source's name)

| SMILES | ED50 (acetic acid "writhing"; read-out: ID50 mg/kg) [mg/kg] | LD50 [1] [mg/kg] | selectivity ratio [1] | ED50 [2] [mg/kg] | Activity (2 mg/kg iv.) [2] [%] | ED50 (acetic acid "writhing"; [3]) [mg/kg] |
| --- | --- | --- | --- | --- | --- | --- |
| CC(=O)Oc1ccccc1C(=O)O [Acetylsalicylic acid, reference compound] | 261 | 1350 | 5.2 | – | – | – |
| C=CCNC(=S)N=C1SCCN1c1cc(Cl)ccc1[N+](=O)[O-] [Example 20, 2-(N'-Allylthiocarbamoylimino)-3-(5'-chloro-2'-nitrophenyl)-thiazolidine] | – | – | – | 1.45 | 78 | – |
| CC(=O)N=C1SCCN1c1ccc(Cl)cc1[N+](=O)[O-] [Example 24, 2-Acetylimino-3-(4'-chloro-2'-nitrophenyl)-thiazolidine] | – | 700 | 10.9 | – | – | 37 |
| CC(=O)N=C1SCCN1c1ccccc1[N+](=O)[O-] [Example 25, L-Acetylimino=3-(2-nitrophenyl)-thiazolidine] | – | 2000 | 11.1 | – | – | 180 |
| CC(=O)N=C1SCCN1c1ccc(C(F)(F)F)cc1[N+](=O)[O-] [Example 26, 2-Acetylimino-3-(4'-trifluoromethyl-2'-nitrophenyl)-thiazolidine] | – | 2000 | 11.8 | – | – | 170 |
| N#CN=C1SCCN1c1cc(Cl)ccc1[N+](=O)[O-] [Example 46, 2-Cyanimido-3-(5'-chloro-2'-nitrophenyl)thiazolidine] | – | – | – | 1.76 | 62 | – |

Reference: patent publication US5240918A, “2-(substituted imino)-thiazolidines and process for the preparation thereof” (EGIS Gyogyszergyar, priority 1992, dated 1993)
